For test [1], the target named is T1, human GPR52 (Homo sapiens, UniProt Q9Y2T5).
T1 construct: expressed in transfected cells; host or cells: CHO(dhfr-) cells
The test can be described thus: Increase of intracellular cAMP concentration in human GPR52-expressing CHO cell (AlphaScreen cAMP assay). Format: cell-based. Particulars: human GPR52-expressing CHO(dhfr-) cells; for activity at 1 µM: CHO, 1µM test compound, 100% = cAMP with 1 µM Reference Example 79, 0% = DMSO, 37°C, 30 min, read-out: GPR52 agonist activity (%); for EC50: concentration of the test compound at which it shows 50% activity, read-out: GPR52 agonist activity EC50. The essentials:
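1×10^4 GPR52-expressing CHO(dhfr-) cells incubated 30 min at 37 °C with compound (10^-5 µM–10 µM) in HBSS, 0.5% BSA, 100 µM IBMX, 100 µM Ro20-1724, 5 mM HEPES pH 7.55; cAMP read by AlphaScreen. Agonism normalized to 1 µM reference agonist (100%) and DMSO (0%).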
A general note: Alpha assays give light when donor and acceptor beads are brought close together.

For test [2], the system named is methamphetamine-induced locomotor hyperactivity in mice. Put plainly: Inhibition test of methamphetamine-induced locomotor hyperactivity. Format: in vivo. As to conditions: test compound 10 mg/kg body weight orally, male ICR mice; methamphetamine 2 mg/kg s.c. 60 min later; locomotor activity counted over 150 min, versus vehicle group. On the procedure: Inhibition test of methamphetamine-induced locomotor hyperactivity
The compound of the present invention can be evaluated by assessing its capacity to inhibit methamphetamine-induced locomotor hyperactivity in mice. The method of Okuyama et al (Life Science, Vol. 65, p. 2109-2125 (1999)) was modified and used for testing the inhibition of methamphetamine-induced locomotor hyperactivity.
Locomotor activity was measured using a 32-channel locomotor activity measurement device MDC-LT (BrainScience Idea Co., Ltd.), which emits infrared beams from the top of a cage (30 x 40 x 20 cm). 6- to 8-Week-old male ICR mice were acclimated for at least 45 min in the measurement cages, and then either test compound (10 mg/kg body weight) dissolved in vehicle (0.5% aqueous methylcellulose solution) or the vehicle alone was orally administered. This oral administration was followed 60 min later by subcutaneous administration of methamphetamine (2 mg/kg body weight).
The number of times the laboratory animals passed through the infrared beams emitted inside the measurement cages in 150 min after administration of the test compound or vehicle was counted to quantify locomotor activity. The methamphetamine-induced locomotor hyperactivity inhibition rate (activity inhibition rate (%)) was calculated by the following equation. Activity inhibition rate (%) = {1-(locomotor activity of test compound treatment group after treatment with methamphetamine÷locomotor activity of vehicle treatment group after treatment with methamphetamine)}x 100 [formula] The results are shown in Table 3

T1 sequence (Q9Y2T5 whole entry): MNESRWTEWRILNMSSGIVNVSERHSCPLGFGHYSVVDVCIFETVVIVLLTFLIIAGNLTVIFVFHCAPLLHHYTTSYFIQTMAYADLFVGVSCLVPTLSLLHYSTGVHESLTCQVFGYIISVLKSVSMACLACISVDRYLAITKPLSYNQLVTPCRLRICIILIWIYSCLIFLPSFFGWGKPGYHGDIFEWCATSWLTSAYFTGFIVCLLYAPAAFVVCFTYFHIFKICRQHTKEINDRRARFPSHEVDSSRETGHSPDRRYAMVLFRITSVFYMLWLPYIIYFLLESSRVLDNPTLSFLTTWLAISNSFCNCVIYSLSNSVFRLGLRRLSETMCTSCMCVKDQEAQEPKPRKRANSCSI

In general, EC50 refers to the midpoint of the concentration-response curve. Regarding `Cc1nn(-c2cccc3cc(Cc4cccc(C(F)(F)F)c4)sc23)cc1C(=O)NCCO` [Example 15, N-(2-hydroxyethyl)-3-methyl-1-[2-[3-(trifluoromethyl)benzyl]-1-benzothiophen-7-yl]-1H-pyrazole-4-carboxamide], in test [1], the activity at 1 µM stood at 102% and the EC50 was determined as 5.7 nM. The “Activity inhibition rate (%)” value in test [2] is recorded as 48%.
Taken in the same sequence, the figures for `Cc1nn(-c2cccc3cc(Cc4cccc(C(F)(F)F)c4)sc23)cc1C(N)=O` [Example 17, 3-methyl-1-[2-[3-(trifluoromethyl)benzyl]-1-benzothiophen-7-yl]-1H-pyrazole-4-carboxamide] were 96%, 11 nM and 43%.
Take `Cc1nn(-c2ccc(F)c3cc(Cc4cccc(C(F)(F)F)c4)sc23)c(C)c1C(=O)NCC(N)=O` [Example 58, N-(2-amino-2-oxoethyl)-1-[4-fluoro-2-[3-(trifluoromethyl)benzyl]-1-benzothiophen-7-yl]-3,5-dimethyl-1H-pyrazole-4-carboxamide]: in test [1], the activity at 1 µM came to 92% and the EC50 is 40 nM. Also, the “Activity inhibition rate (%)” value in test [2] is given as 47%.
For `Cc1nn(-c2cccc3cc(Cc4cccc(C(F)(F)F)c4)sc23)c(CO)c1C(=O)NCCO` [Example 65, N-(2-hydroxyethyl)-5-(hydroxymethyl)-3-methyl-1-[2-[3-(trifluoromethyl)benzyl]-1-benzothiophen-7-yl]-1H-pyrazole-4-carboxamide], in test [1], the activity at 1 µM is 99%. For the same compound, the “Activity inhibition rate (%)” value in test [2] is 51%.

The values above are taken from patent EP2518054A1, “AMIDE COMPOUND” (Takeda Pharmaceutical Company Limited, priority 2009, dated 2011).
